Several values for one entry are separate records, joined by “and”; a condition that tells them apart may be missing. Equal values may be shown once. Read-outs that look alike come from different tables or passages of the source.
What was measured:
FleA [1] = biological target: T1, FleA (Aspergillus fumigatus, UniProt Q4WW81); parameters: method as in PMID 25760594; conditions: SPR experiment; read-out: Kd of binding for FleA; cited from earlier work
T1 construct: 6xHis (TEV-cleavable) (N, cleaved yes); made in house
T1 sequence (Q4WW81 whole entry): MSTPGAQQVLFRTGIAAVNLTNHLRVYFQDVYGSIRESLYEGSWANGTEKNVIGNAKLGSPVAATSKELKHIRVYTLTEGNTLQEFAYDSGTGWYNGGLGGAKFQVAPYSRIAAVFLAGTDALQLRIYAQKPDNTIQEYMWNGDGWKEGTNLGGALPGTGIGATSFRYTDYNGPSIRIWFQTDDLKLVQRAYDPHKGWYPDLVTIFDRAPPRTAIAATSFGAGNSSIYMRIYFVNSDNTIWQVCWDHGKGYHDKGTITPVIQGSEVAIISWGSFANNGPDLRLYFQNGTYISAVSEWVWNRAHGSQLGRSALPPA

BambL [2] = biological target: T2, BambL (Burkholderia ambifaria, UniProt Q0B4G1); experiment: Isothermal titration calorimetry (ITC); type: binding; conditions: for Kd: 20 mM Tris, 100 mM NaCl, pH 8.0; for -TΔS (kJ/mol) BambL binding / ΔH (kJ/mol) BambL binding / N BambL binding (Table S3): Table S3, ITC 25 °C; for N BambL binding (Table S3): as printed in SI, one third of the per-trimer N of Table 2
T2 sequence (Q0B4G1 1-87): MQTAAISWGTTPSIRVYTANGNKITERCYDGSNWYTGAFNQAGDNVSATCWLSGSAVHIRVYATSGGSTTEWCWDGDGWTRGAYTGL
Source text: (§1) Due to the time-consuming measurements and the high quantity of protein necessary in some techniques, we selected only the four inhibitors with the largest size (compounds with PEGn=4 and hPG-20) for further biophysical analysis. More in-depth studies were continued by isothermal titration calorimetry (ITC) and bio-layer interferometry (BLI), which confirmed the trends previously seen by FP (Table 2). In the ITC experiments, the fungal lectins bound their monovalent reference with a stoichiometry (N) value around […], which is consistent with the number of high-affinity binding sites per monomer. With the value close to […] obtained for BambL, the reference experiments are indicative of active recombinant proteins and correlate well with previous findings in the literature.[39],[41] […] This calls for a likely mixed chelate-aggregative binding, whose precise architecture cannot be determined based solely on the compound/protein ratio.
(§2) 1.2 I sotherm al ti trati on c al ori m etry
(§3) Protein targets were pl ace d i n t he sample cell at concentrations ranging between 50 an d 8.5 μM at 25 °C. […]
Ta b le S3. Microcalorimetry data relative to B am bL binding.

FleA [3] = biological target: T1, FleA; experiment: Isothermal titration calorimetry (ITC); type: binding; conditions: for Kd: 20 mM Tris, 100 mM NaCl, pH 8.0; for N stoichiometry FleA ITC: ratio of compound per FleA monomer (six binding sites); for -TΔS (kJ/mol) FleA binding / ΔH (kJ/mol) FleA binding: Table S1, ITC 25 °C
Source text: as §1, §2, §3
Ta b le S1. Microcalorimetry data relative to Fl e A binding.

BambL [4] = biological target: T2, BambL; experiment: Bio-layer interferometry (BLI), biotinylated lectin on streptavidin sensor; type: binding; conditions: read-out: Kobs (nM) BambL BLI; 25 °C; protein immobilized
Source text: (§4) Applying different techniques to study the mechanism of multivalent binding is always advisable to better understand the process at a molecular level.[44] BLI is a biophysical technique where the target protein can be immobilized on the surface of the sensor, so problems related to aggregation should be eliminated. This technology has in fact been applied to the study of lectin-multivalent glycoconjugate interactions in a reliable, low-cost, and fast way.[45] […] A discrepancy of this nature is not too surprising considering that in the BLI experiment, one of the binding partners is immobilized, so its Kd’s might be better labeled as Kobs. Different techniques measure inherently different properties. It has been pointed out in a recent publication that drastically different outcomes can be obtained from solution to surface experimental approaches and that these variations are highly dependent on the accessibility of the binding motif.[46] The arrangement of glycans and the linker used for immobilization have shown to influence affinity on the glycan array setting. Therefore, it is likely that also the arrangement of a protein on the surface can have a similar effect when the setting is reversed.[46],[47] The difference in affinities between ITC and BLI for the fungal versus the bacterial lectins may relate to their orientation on the surface. The proteins were immobilized to the surface of a streptavidin-coated sensor through biotinylation of their lysine residues. BambL has only one lysine per monomer, opposite to the binding surface, while FleA and SapL1 have several, some of which close to the binding sites. It is plausible that this would influence the binding of the lectins to the sensor and the exposure of their sites. […] In contrast, all binding sites and modalities are accessible in solution during ITC.
(§5) 1.4 B i ol ayer i n terferom etry
(§6) The mixture was incubate d for 30 minutes with stirring. […] Biotinylated protein at 100nM concentrations were loaded on the sensor. […]

SapL1 [5] = biological target: T3, SapL1 (Scedosporium apiospermum, UniProt A0A084FYP2); experiment: as above; type: binding; conditions: read-out: Kobs (nM) SapL1 BLI; 25 °C; protein immobilized
T3 sequence (A0A084FYP2 entry or part of it): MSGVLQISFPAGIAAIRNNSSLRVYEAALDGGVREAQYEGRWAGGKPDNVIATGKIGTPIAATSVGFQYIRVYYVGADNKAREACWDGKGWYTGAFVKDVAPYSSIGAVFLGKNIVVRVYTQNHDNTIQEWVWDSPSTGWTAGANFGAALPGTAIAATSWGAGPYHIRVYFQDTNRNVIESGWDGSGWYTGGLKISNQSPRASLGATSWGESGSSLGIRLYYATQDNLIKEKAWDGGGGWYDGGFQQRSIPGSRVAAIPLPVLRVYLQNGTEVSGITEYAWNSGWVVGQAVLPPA
Source text: as §4, §5, §6

FleA [6] = biological target: T1, FleA; experiment: as above; type: binding; conditions: 25 °C; protein immobilized; read-out: Kobs (nM) FleA BLI
Source text: as §4, §5, §6

BambL [7] = biological target: T2, BambL; experiment: Competitive fluorescence polarization (FP) assay; type: binding; conditions: Fuc-FITC probe 6 nM, protein 100 nM, average over two independent experiments, read-out: IC50 (nM) ± SD BambL
Source text: (§7) With the targeted lectins in hand, we could screen the inhibitory properties of the synthesized compounds by a competitive binding assay based on fluorescence polarization (FP). […] In general, results confirmed the power of multivalency as IC50 values improved from the micromolar range for the monosaccharide reference to the nanomolar range for the multivalent counterparts (Table 1).
(§8) 1.1 F l uoresc en c e pol ari z ati on c om peti ti ve assay
(§9) The fluorescen t ligan d Fu c -FI TC (F i g ur e S 1 ) w as pr e par e d f r om com poun d 2a followin g a protocol reported in literature.1 T y pi cal l y , a s t ock s ol uti on of pr ote i n (f i n al con ce n tr ati on 100 n M) an d Fu c -FI TC (final concentration 6 n M) w e r e adde d to 3 -f ol d serial dilution s of testin g compoun ds in dupl i cat e s on a bl ack 9 6 well microtiter plate (CO S T A R TM 96) . […] The starting concentration for the monovalent com poun d w as 3 mM an d 5 -fold dilution s were used in this case. All compon en ts were dissolved in the same buffer (20 mM Tris, 100 mM N aCl , pH 8.0). After addition of the reagents, the microtiter plates were s hak e d f or 1 h at room temperature i n t he dar k . […] A fluorescen ce in ten sity spectral scan of the multivalent compounds alone was also performed to confirm no interference with the analysis. […] The point of inflection was used to determine the IC50 value of each experiment. […]
(§10) Fi gu re S1 . The structure of the fluorescent probe Fu c -FI TC.

SapL1 [8] = biological target: T3, SapL1; experiment: Competitive fluorescence polarization (FP) assay; type: binding; conditions: read-out: IC50 (nM) ± SD SapL1, Fuc-FITC probe 6 nM, protein 100 nM, average over two independent experiments
Source text: as §7, §8, §9, §10

FleA [9] = biological target: T1, FleA; experiment: Competitive fluorescence polarization (FP) assay; type: binding; conditions: Fuc-FITC probe 6 nM, protein 100 nM, average over two independent experiments, read-out: IC50 (nM) ± SD FleA
Source text: as §7, §8, §9, §10

SapL1 [10] = biological target: T3, SapL1; experiment: Isothermal titration calorimetry (ITC); type: binding; conditions: for N stoichiometry SapL1 ITC: ratio of compound per SapL1 monomer (six binding sites); for -TΔS (kJ/mol) SapL1 binding / ΔH (kJ/mol) SapL1 binding: Table S2, ITC 25 °C
Source text: as §1, §2, §3
Ta b le S2. Microcalorimetry data relative to S apL1 binding. […]

[11] = test system: adhesion of Af293.1 spores to A549 cells; experiment: Adhesion assay of A. fumigatus conidia to lung epithelial cells; type: cell-based, Aspergillus fumigatus
Experimental: In our adhesion assay, A549 cells were cultured in a well-plate until a confluent layer was obtained and then challenged with A. fumigatus conidia in the presence or absence of FleA inhibitors. After incubation and washing to remove unbound spores from the cell layer, imaging was performed by confocal microscopy (Figure 4). The detection of fungi was facilitated by the availability of Af293.1, a strain originally derived from a clinical isolate and genetically modified to constitutively express red fluorescent protein.[53] Cell nuclei were stained with Hoechst fluorescent dye for visualization.[54] Cell and spore counts were calculated by ImageJ software and used to express adhesion efficiencies.
Figure 5 Adhesion of Af293.1 to A459. The black bars refer to the conditions where compounds and spores were pre-incubated 1 h prior infection. The white-striped bars refer to the conditions where compounds were added 1 h after infection. *Significant difference to the control (chi-square test, followed by Bonferroni’s multiple comparison test).
[…] Unbound conidia were removed carefully by washin g 4 times with m e di a (D ME M + 10% F BS). […] Fluorescence emission of Hoechst was de te cte d us i n g the 400- 600 nm spectral band and red fluorescence emission of R F P was detected with the 560- 700 n m s pe ctr al ban d. […]

FleA, SapL1, and BambL = biological target: FleA, SapL1, and BambL; parameters: method as in PMID 24340081, PMID 34373510, PMID 22170069; conditions: range over FleA, read-out: Kd of α-methyl fucose; cited from earlier work

Structure (SMILES)	Kd (FleA [1])	Kd (BambL [2]; 25 °C)	-TΔS (kJ/mol) BambL binding (BambL [2])	ΔH (kJ/mol) BambL binding (BambL [2])	N BambL binding (Table S3) (BambL [2])	Kd (FleA [3]; 25 °C)	N stoichiometry FleA ITC (FleA [3]; 25 °C)	-TΔS (kJ/mol) FleA binding (FleA [3])	ΔH (kJ/mol) FleA binding (FleA [3])	IC50 (BambL [7])	IC50 (FleA [9])	N stoichiometry SapL1 ITC (SapL1 [10]; 25 °C)	-TΔS (kJ/mol) SapL1 binding (SapL1 [10])	ΔH (kJ/mol) SapL1 binding (SapL1 [10])	also measured
C[C@@H]1OC(O)[C@@H](O)[C@H](O)[C@@H]1O (stereo partly drawn) [L-Fuc]	209000 nM	–	–	–	–	–	–	–	–	–	–	–	–	–	–
C[C@@H]1O[C@@H](OCCN=[N+]=[N-])[C@@H](O)[C@H](O)[C@@H]1O [2a]	–	2140 ± 80 nM	17 ± 1 kJ/mol	-50 ± 1 kJ/mol	1.81 ± 0.01	97600 ± 300 nM	4.1 ± 0.02	16 ± 4 kJ/mol	-39 ± 4 kJ/mol	–	–	–	–	–	–
C[C@@H]1O[C@@H](OCCNC(=O)CCOCCOCCOCCOCCNC(=O)Cc2ccc(SCc3c(CSc4ccc(CC(=O)NCCOCCOCCOCCOCCC(=O)NCCO[C@@H]5O[C@@H](C)[C@@H](O)[C@@H](O)[C@@H]5O)cc4)c(CSc4ccc(CC(=O)NCCOCCOCCOCCOCCC(=O)NCCO[C@@H]5O[C@@H](C)[C@@H](O)[C@@H](O)[C@@H]5O)cc4)c(CSc4ccc(CC(=O)NCCOCCOCCOCCOCCC(=O)NCCO[C@@H]5O[C@@H](C)[C@@H](O)[C@@H](O)[C@@H]5O)cc4)c(CSc4ccc(CC(=O)NCCOCCOCCOCCOCCC(=O)NCCO[C@@H]5O[C@@H](C)[C@@H](O)[C@@H](O)[C@@H]5O)cc4)c3CSc3ccc(CC(=O)NCCOCCOCCOCCOCCC(=O)NCCO[C@@H]4O[C@@H](C)[C@@H](O)[C@@H](O)[C@@H]4O)cc3)cc2)[C@@H](O)[C@H](O)[C@@H]1O [hexa-4]	–	4.7 ± 0.9 nM	249 ± 10 kJ/mol	-296 ± 9 kJ/mol	0.35 ± 0.01	115 ± 4 nM	0.8 ± 0.02 and 0.8	206 ± 6 kJ/mol	-246 ± 6 kJ/mol	31 ± 3 nM	148 ± 6 nM	0.72 ± 0.02 and 0.72	155 ± 12 kJ/mol	-199 ± 13 kJ/mol	Kd (BambL [4]): 1.6 ± 0.1 nM; Kd (SapL1 [5]): 1.2 ± 0.2 nM; Kd (FleA [6]): 4.1 ± 0.1 nM; IC50 (SapL1 [8]): 43 ± 6 nM; β affinity enhancement (Kd,mono/Kd,multi) SapL1 ITC (SapL1 [10]; 25 °C): 2735; β/v affinity enhancement per single sugar SapL1 ITC (SapL1 [10]; 25 °C, v = valency): 456; Kd (SapL1 [10]; read-out: Kd (nM) SapL1 ITC, 25 °C, 20 mM Tris, 100 mM NaCl, pH 8.0): 25 nM and 24.9 nM; β affinity enhancement (Kd,mono/Kd,multi) BambL ITC (BambL [2]; 25 °C): 455; N stoichiometry BambL ITC (BambL [2]; 25 °C, ratio of compound per BambL trimer (six binding sites)): 1.05; β/v affinity enhancement per single sugar BambL ITC (BambL [2]; 25 °C, v = valency): 76; β affinity enhancement (Kd,mono/Kd,multi) FleA ITC (FleA [3]; 25 °C): 849; β/v affinity enhancement per single sugar FleA ITC (FleA [3]; 25 °C, v = valency): 142
CC(=O)N[C@H]1C(O)O[C@H](CO)[C@@H](O[C@@H]2O[C@@H](C)[C@@H](O)[C@@H](O)[C@@H]2O)[C@@H]1O (stereo partly shown) [αFuc(1–4)GlcNAc]	63000 nM	–	–	–	–	–	–	–	–	–	–	–	–	–	–
CO[C@@H]1O[C@@H](C)[C@@H](O)[C@@H](O)[C@@H]1O [α-Me-Fuc, α-methyl fucose, reference compound]	–	–	–	–	–	–	–	–	–	1400 ± 200 nM	111000 nM	3.52 ± 0.13	27 ± 2 kJ/mol	-63 ± 11 kJ/mol	anti-adhesive effect ([11]; 0.1 mM, spores preincubated with compound, MOI 2, Figure S3): ineffective; concentration needed to elicit any measurable anti-adhesive properties ([11]; control experiment, preincubation): 1 mM; Kd (FleA, SapL1, and BambL): 1000 to 200000 nM

Source: publication PMC9764287, “Multivalent Fucosides Targeting β-Propeller Lectins from Lung Pathogens with Promising Anti-Adhesive Properties” (ACS Chemical Biology, 2022)
